Measurements: patent US8563729B2, “Thienopyridone derivatives as AMP-activated protein kinase (AMPK) activators” (Merck Patent GmbH, priority 2008, dated 2013)

Tests used:
[1] = target: T1, AMPK protein (recombinant α1β1γ2) (Homo sapiens, UniProt Q13131+Q9Y478); assay: AMPK enzymatic activity (Delfia, AMARA peptide substrate); assay type: biochemical; settings: compound 30 μM vs AMP 30 μM; 125 μM ATP; ratio 90% or higher = direct activator
T1 construct: made in house; host or cells: E. coli
Description: The following biological test allows the determination of the efficacy of such compounds of formula (I) onto AMPK protein (recombinant α1β1γ2).
Human recombinant AMPK enzyme was expressed in E. Coli and was reactivated in vitro by LKB1 prior to enzyme activity determination.
AMPK enzyme activities were assayed by using A Delfia technology. AMPK enzyme activities were carried out in microtiter plates (50 mM Hepes buffer, pH 7.4 with 125 μM ATP respectively) in the presence of a synthetic peptide substrate (AMARAASAAALARRR, the “AMARA” peptide) and activators in serial dilutions. Reactions were initiated by the addition of AMPK (50-100 ng). Following mixing, the plates were incubated for 30 min at room temperature. Enzyme activity was assayed by using an anti-phosphoserine antibody to measure the quantity of phosphate incorporated into the AMARAA.
(§1) N°: Number of the molecule
Activity: Ratio between the % of control (basal activity) of compound of formula (I) at 30 μM and the % of control (basal activity) of AMP (natural substrate) at 30 μM.
Compounds of formula (I) in the table II are considered as direct activator of AMPK if the ratio is 90% or higher.

H-2 Kb cells = assay: Glucose uptake in H-2 Kb cells (in vitro cellular test); assay type: cell-based, mouse; settings: H-2 Kb cells differentiated in muscle, 4 hours incubation, 2-deoxy-D-[1,2 3H] glucose uptake 10 min
Description: Glucose Uptake in H-2 Kb Cells (In Vitro Cellular Test)
The following cellular test allows the determination of the effect of AMPK activators such as compounds of formula (I) onto glucose uptake in a muscle cellular model.
H-1-2 Kb cells derived from heterozygous H-2 Kb tsA58 transgenic mouse were grown in 24-well in plates coated with matrigel and were cultured at 33° C. for 4 days under permissive conditions, as described previously by Fryer et al. (Diabetes 49 (12): 1978, 2000).
For differentiation in muscle, cells were switched to non-permissive culture conditions (37° C. in the absence of interferon-γ). After 3 days, cells were incubated for 4 hours in DMEM 1 g/l glucose culture medium containing different concentrations of the tested molecules. Then glucose uptake was measured by incubating the cells for 10 min with radiolabelled 2-deoxy-D-[1,2 ^3H] glucose. Glucose uptake was terminated by rapidly washing the plates 2 times with ice-cold NaCl 0.9%. The cells were then solubilized in 0.1N NaOH for 30 min. Radioactivity was determined by liquid scintillation counting.
as §1
Activity (table III): Concentration of compound (I) for a glucose uptake equal or higher to glucose uptake induced by insulin (170 nM)
^++ or **concentration of compound (I) ≦10 micro Molar
^+ or *concentration of compound (I) >10 micro Molar

T1 sequence (Q13131 whole entry): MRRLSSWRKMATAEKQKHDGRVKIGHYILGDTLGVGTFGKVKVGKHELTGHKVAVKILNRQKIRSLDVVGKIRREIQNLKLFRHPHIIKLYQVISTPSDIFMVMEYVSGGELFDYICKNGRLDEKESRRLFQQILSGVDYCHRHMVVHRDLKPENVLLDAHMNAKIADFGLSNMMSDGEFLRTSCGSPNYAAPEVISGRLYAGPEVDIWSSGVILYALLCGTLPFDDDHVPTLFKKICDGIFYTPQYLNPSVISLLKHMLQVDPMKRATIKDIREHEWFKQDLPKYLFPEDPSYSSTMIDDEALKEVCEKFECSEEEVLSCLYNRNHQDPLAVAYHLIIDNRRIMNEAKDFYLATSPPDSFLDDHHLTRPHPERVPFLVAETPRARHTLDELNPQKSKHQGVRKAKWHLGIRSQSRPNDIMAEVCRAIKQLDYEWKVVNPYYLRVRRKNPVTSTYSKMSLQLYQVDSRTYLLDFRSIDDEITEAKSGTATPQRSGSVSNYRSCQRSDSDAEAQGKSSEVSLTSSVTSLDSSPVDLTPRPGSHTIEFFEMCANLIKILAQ
T1 sequence (Q9Y478 whole entry): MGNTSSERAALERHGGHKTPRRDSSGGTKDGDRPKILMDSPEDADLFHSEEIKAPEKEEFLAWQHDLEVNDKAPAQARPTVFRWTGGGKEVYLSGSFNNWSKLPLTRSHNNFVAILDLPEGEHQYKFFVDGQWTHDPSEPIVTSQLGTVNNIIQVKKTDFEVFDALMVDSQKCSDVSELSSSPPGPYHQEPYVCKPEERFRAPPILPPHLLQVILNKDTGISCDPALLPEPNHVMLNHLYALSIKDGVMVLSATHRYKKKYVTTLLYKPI
T1 sequence (Q9UGJ0 whole entry partner): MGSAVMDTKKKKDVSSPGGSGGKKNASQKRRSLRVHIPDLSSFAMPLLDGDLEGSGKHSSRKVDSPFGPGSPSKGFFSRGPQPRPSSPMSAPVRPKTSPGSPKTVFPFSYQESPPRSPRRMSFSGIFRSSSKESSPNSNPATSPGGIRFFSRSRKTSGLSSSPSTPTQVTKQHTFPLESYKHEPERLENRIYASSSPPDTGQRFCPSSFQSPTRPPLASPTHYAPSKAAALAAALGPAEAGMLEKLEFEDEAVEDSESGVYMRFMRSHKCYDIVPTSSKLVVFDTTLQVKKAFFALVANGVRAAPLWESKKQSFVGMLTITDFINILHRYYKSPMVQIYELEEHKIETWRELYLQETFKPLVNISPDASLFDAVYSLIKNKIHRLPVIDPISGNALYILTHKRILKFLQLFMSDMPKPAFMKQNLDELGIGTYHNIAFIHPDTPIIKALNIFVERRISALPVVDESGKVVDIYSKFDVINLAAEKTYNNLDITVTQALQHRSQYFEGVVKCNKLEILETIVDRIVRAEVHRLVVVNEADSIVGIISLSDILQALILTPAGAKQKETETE

SMILES | activity: Ratio between the % of control (basal activity) of compound of formula (I) at 30 μM and the % of control (basal activity) of AMP at 30 μM [1] [%] | Activity (table III): Concentration of compound (I) for a glucose uptake equal or higher to glucose uptake induced by insulin (170 nM) (H-2 Kb cells)
Cc1ccc(-c2c(O)c3c(-c4ccc(F)cc4O)csc3[nH]c2=O)cc1 [Compound 188] | 183 | + (^+ or *concentration of compound (I) >10 micro Molar)
O=c1[nH]c2scc(-c3ccc4ccccc4c3O)c2c(O)c1-c1ccccc1 [Compound 34] | 625 | * (^+ or *concentration of compound (I) >10 micro Molar)
Cc1ccc(-c2c(O)c3c(-c4ccc(C)cc4O)c(Cl)sc3[nH]c2=O)cc1 [Compound 194] | 183 | ++ (^++ or **concentration of compound (I) ≦10 micro Molar)
O=c1[nH]c2sc(Cl)c(-c3cc(F)c(F)cc3O)c2c(O)c1-c1ccccc1 [Compound 193] | 139 | + (^+ or *concentration of compound (I) >10 micro Molar)
Cc1ccc(-c2c(F)sc3[nH]c(=O)c(-c4ccc(F)cc4)c(O)c23)c(O)c1F [Compound 211] | 149 | + (^+ or *concentration of compound (I) >10 micro Molar)
O=c1[nH]c2scc(-c3ccc(C(F)(F)F)cc3)c2c(O)c1-c1ccccc1 [Compound 36] | 121 | * (^+ or *concentration of compound (I) >10 micro Molar)
O=c1[nH]c2sc(Cl)c(-c3ccc4ccccc4c3O)c2c(O)c1-c1ccc(F)cc1 [Compound 185] | 284 | ++ (^++ or **concentration of compound (I) ≦10 micro Molar)
COc1ccc(F)cc1-c1c(Cl)sc2[nH]c(=O)c(-c3ccccc3)c(O)c12 [Compound 189] | 175 | + (^+ or *concentration of compound (I) >10 micro Molar)
COc1cc(F)ccc1-c1c(Cl)sc2[nH]c(=O)c(-c3ccccc3)c(O)c12 [Compound 187] | 124 | + (^+ or *concentration of compound (I) >10 micro Molar)
Cc1ccc(-c2c(Cl)sc3[nH]c(=O)c(-c4cccc(C#N)c4)c(O)c23)c(O)c1 [Compound 101] |  | * (^+ or *concentration of compound (I) >10 micro Molar)
O=c1[nH]c2scc(-c3ccc(CO)cc3)c2c(O)c1-c1ccccc1 [Compound 38] | 119 | 
Cc1ccc(-c2c(Cl)sc3[nH]c(=O)c(-c4ccccc4)c(O)c23)cc1O [Compound 102] |  | ** (^++ or **concentration of compound (I) ≦10 micro Molar)
COc1ccc(-c2c(O)c3c(-c4ccc(F)cc4)csc3[nH]c2=O)cc1 [Compound 44] | 98 | 
COc1cc(-c2c(Cl)sc3[nH]c(=O)c(-c4ccccc4)c(O)c23)ccc1C [Compound 103] |  | * (^+ or *concentration of compound (I) >10 micro Molar)
O=c1[nH]c2scc(-c3ccc(O)c(F)c3)c2c(O)c1-c1ccccc1 [Compound 72] | 150 | 
O=c1[nH]c2sc(Cl)c(-c3ccc(F)cc3F)c2c(O)c1-c1ccccc1 [Compound 114] | 115 | 
O=c1[nH]c2scc(-c3ccc(O)cc3O)c2c(O)c1-c1ccccc1 [Compound 61] | 146 | 
COc1ccc(O)c(-c2csc3[nH]c(=O)c(-c4ccccc4)c(O)c23)c1 [Compound 79] | 593 | 
COc1ccc(-c2c(O)c3c(-c4ccc(OC)cc4)csc3[nH]c2=O)cc1 [Compound 40] | 109 | 

Second part, led by results:

activity: Ratio between the % of control (basal activity) of compound of formula (I) at 30 μM and the % of control (basal activity) of AMP at 30 μM [1] [%] | SMILES | Activity (table III): Concentration of compound (I) for a glucose uptake equal or higher to glucose uptake induced by insulin (170 nM) (H-2 Kb cells)
107 | O=c1[nH]c2sc(Cl)c(-c3ccccc3)c2c(O)c1-c1ccccc1 [Compound 162] | ** (^++ or **concentration of compound (I) ≦10 micro Molar)
129 | O=c1[nH]c2sc(Cl)c(-c3ccc4ccccc4c3)c2c(O)c1-c1ccccc1 [Compound 137] | * (^+ or *concentration of compound (I) >10 micro Molar)
128 | O=c1[nH]c2scc(-c3ccc(Cl)cc3)c2c(O)c1-c1ccccc1 [Compound 26] | * (^+ or *concentration of compound (I) >10 micro Molar)
165 | Cc1ccc(-c2c(Cl)sc3[nH]c(=O)c(-c4ccccc4)c(O)c23)cc1C [Compound 196] | ++ (^++ or **concentration of compound (I) ≦10 micro Molar)
236 | Cc1ccc(-c2c(Cl)sc3[nH]c(=O)c(-c4ccccc4)c(O)c23)c(O)c1 [Compound 104] | * (^+ or *concentration of compound (I) >10 micro Molar)
225 | O=c1[nH]c2sc(Cl)c(-c3ccccc3)c2c(O)c1-c1cccnc1 [Compound 166] | + (^+ or *concentration of compound (I) >10 micro Molar)
252 | O=c1[nH]c2sc(Cl)c(-c3ccccc3)c2c(O)c1-c1cccc(F)c1 [Compound 175] | + (^+ or *concentration of compound (I) >10 micro Molar)
96 | Cc1sc2[nH]c(=O)c(-c3ccccc3)c(O)c2c1-c1ccccc1 [Compound 10] | * (^+ or *concentration of compound (I) >10 micro Molar)
126 | Cc1ccc(-c2csc3[nH]c(=O)c(-c4ccccc4)c(O)c23)cc1 [Compound 35] | ** (^++ or **concentration of compound (I) ≦10 micro Molar)
195 | O=c1[nH]c2sc(Cl)c(-c3cccc(CO)c3)c2c(O)c1-c1ccccc1 [Compound 124] | 
113 | Cc1ccc(-c2c(Cl)sc3[nH]c(=O)c(-c4ccccc4)c(O)c23)cc1 [Compound 135] | 
109 | O=c1[nH]c2scc(-c3cccc(O)c3)c2c(O)c1-c1ccccc1 [Compound 48] | 
102 | O=C(O)c1sc2[nH]c(=O)c(-c3ccccc3)c(O)c2c1-c1ccccc1 [Compound 3] | 
